Reference: publication PMC12446468, “Anti-inflammatory and cytotoxic assessment of flavonoids isolated from Viola odorata flowers with computer-guided docking study” (Scientific Reports, 2025)
Values after ≈ are worked out from the molar mass of the structure shown.

Legend:
[1] = molecular target: T1, 5-LOX enzyme (human recombinant) (Homo sapiens, UniProt P09917); test: 5-lipoxygenase inhibition assay (5-LOX kit); type: biochemical; conditions: mean ± SE, n = 3
T1 construct: purchased Sigma-Aldrich 437996
T1 sequence (P09917 1-674): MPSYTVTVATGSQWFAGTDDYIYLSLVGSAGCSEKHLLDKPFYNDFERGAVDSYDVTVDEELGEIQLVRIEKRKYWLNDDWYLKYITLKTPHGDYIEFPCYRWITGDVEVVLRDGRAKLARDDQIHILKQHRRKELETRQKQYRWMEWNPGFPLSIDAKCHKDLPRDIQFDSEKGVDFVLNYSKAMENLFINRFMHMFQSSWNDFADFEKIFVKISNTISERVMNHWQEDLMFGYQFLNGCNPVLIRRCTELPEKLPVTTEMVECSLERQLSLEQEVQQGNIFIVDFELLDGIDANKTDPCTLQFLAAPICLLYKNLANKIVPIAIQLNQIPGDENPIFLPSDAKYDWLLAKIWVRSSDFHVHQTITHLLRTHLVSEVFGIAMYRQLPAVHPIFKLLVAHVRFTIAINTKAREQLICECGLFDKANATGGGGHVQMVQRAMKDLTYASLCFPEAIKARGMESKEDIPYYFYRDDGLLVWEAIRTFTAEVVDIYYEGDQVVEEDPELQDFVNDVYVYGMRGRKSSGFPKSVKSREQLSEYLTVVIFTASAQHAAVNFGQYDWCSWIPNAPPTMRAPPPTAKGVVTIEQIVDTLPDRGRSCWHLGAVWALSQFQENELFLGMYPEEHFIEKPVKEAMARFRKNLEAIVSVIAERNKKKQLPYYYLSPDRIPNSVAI
Text: The requirements for High-Performance Liquid Chromatography (HPLC) and all compounds tested were of the utmost analytical purity. […] COX-1 and COX-2 (ovine/human), as well as the 5-LOX enzyme (human recombinant) were obtained from Sigma-Aldrich. Dulbecco’s Modified Eagle’s Medium (DMEM), along with penicillin/streptomycin and L-glutamine, were acquired from Gibco BRL, California, USA. Fetal bovine serum (FBS) and 3-(4, 5-dimethylthiazol-2-yl)-2, 5-[…] (MTT) were supplied by Sigma-Aldrich, St. Louis, Missouri, USA.
The methanolic extract of V. odorata flowers and isolated flavonoids were subjected to an in vitro anti-inflammatory assessment by inhibiting two isoenzymes, cyclooxygenase COX-1 and COX-2 (ovine/human), as well as the 5-LOX enzyme (human recombinant).

[2] = system: human colorectal carcinoma cells (HTC-116); test: MTT cytotoxicity assay, HTC-116; type: cell-based; conditions: Homo sapiens, HTC-116, 48 h, read-out: IC50
Description: (§1) The assessment of cytotoxicity for the methanolic extract and isolated flavonoids was performed under controlled and sterile conditions within a Class II A2 Laminar flow biosafety cabinet. The carcinoma cell lines used in this study was obtained from Nawah Scientific Inc. (Cairo, Egypt). The cells were cultured in Dulbecco’s Modified Eagle’s Medium, enriched with 10% heat-inactivated fetal bovine serum, 100 U/ml penicillin, and 100 μg/ml streptomycin sulfate, maintained at […] in humidified incubators with 5% CO2. Upon reaching approximately 80% confluence, the cells were subcultured using a trypsin–EDTA solution. Harvesting occurred during the logarithmic growth phase. The methanolic extract and isolated flavonoids were dissolved in DMSO and stored at − 20 °C. For each experimental trial, the stock solutions were mixed with the culture medium to obtain the required final concentrations.
(§2) The effectiveness of the extract was compared to that of the reference drug, Doxorubicin. The percentage of cell viability was calculated by taking the ratio of the absorbance of the plant extract to that of the control, multiplied by 100. Furthermore, the IC50 value of the plant extract was determined using Sigma Plot software version 11 (Spw.exe) (https://sigmaplot.software.informer.com/11.0/).

[3] = MTT cytotoxicity assay, HTC-116; type: cell-based, human; conditions: human, HTC-116 cells (human colorectal carcinoma), 48 h
Description: as §1, §2

`COc1c(O)cc2oc(-c3ccccc3)c(OC)c(=O)c2c1O` [5,7-Dihydroxy-3,6-dimethoxyflavone] gave an IC50 [1] of 3.14 µM, an IC50 [2] of 31.9 µg/mL (≈ 101 µM) and a cytotoxicity at 48 h, 6.25 µg/ml ([3]; HTC-116, 6.25 ug/ml) of 29.8%. The viability at 48 h, 6.25 µg/ml ([3]; HTC-116, 6.25 ug/ml, read-out: % Cell viability) was 70.2%, the cytotoxicity at 48 h, 12.5 µg/ml ([3]; HTC-116, 12.5 ug/ml) was 39.2% and the viability at 48 h, 12.5 µg/ml ([3]; HTC-116, 12.5 ug/ml, read-out: % Cell viability) was 60.8%. The cytotoxicity at 48 h, 25 µg/ml ([3]; HTC-116, 25 ug/ml) was 49.9%, the viability at 48 h, 25 µg/ml ([3]; HTC-116, 25 ug/ml, read-out: % Cell viability) was 50.1% and the cytotoxicity at 48 h, 50 µg/ml ([3]; HTC-116, 50 ug/ml) was 64.9%. For the same molecule, the viability at 48 h, 50 µg/ml ([3]; HTC-116, 50 ug/ml, read-out: % Cell viability) was 35.1%, the cytotoxicity at 48 h, 100 µg/ml ([3]; HTC-116, 100 ug/ml) was 85.9% and the viability at 48 h, 100 µg/ml ([3]; HTC-116, 100 ug/ml, read-out: % Cell viability) was 14.1%.
